Results: patent US11866704B2, “Nucleic acid molecules and uses thereof” (Macau University of Science and Technology, priority 2020, dated 2024)
[s4U] = 4-thiouridine base; m = 2'-O-methyl; r = 2'-OH (RNA)

B1: tRNA-Val(UAC): tRNA purified from Escherichia coli MRE600 total tRNA, SEQ ID NO: 237 (nucleic acid, listed as Escherichia coli)
chain: GGGUGAUUAGCUCAGCDGGGAGAGCACCUCCCUUACAAGGAGGGGGUCGGCGGUNCGAUCCCGUCAUCACCCACCA
modifications: expressed or natural sequence
B2: tRNA-Leu(CAG): tRNA purified from Escherichia coli MRE600 total tRNA, SEQ ID NO: 218 (nucleic acid, listed as Escherichia coli)
chain: GCGAAGGUGGCGGAANNGGNAGACGCGCUAGCUUCAGGNGNUAGUGUCCUUACGGACGUGGGGGUNCAAGUCCCCCCCCUCGCACCA
modifications: expressed or natural sequence

Experiments:
[1] = tested on: HCT-8 human ileocecal colorectal adenocarcinoma cell line; assay: MTT cytotoxicity assay on HCT-8 cells; format: cell-based; conditions: for IC50 / effect on growth and proliferation (FIGS. 7A, 7B): HCT-8; for IC50: MTT, 48 h treatment; for cell viability of HCT-8 cells (FIG. 6A): 50 nM, 48 h, vs control and RNAiMAX group; for effect on growth and proliferation (FIGS. 7A, 7B): 6.25-100 nM
Description: (§1) HCT-8, fluorouracil-resistant HCT-8, fluorouracil-resistant LoVo cell lines were cultured in RPMI Medium 1640 medium containing 10% FBS and 1% penicillin/streptomycin. LoVo cell line was cultured in F-12K medium containing 10% FBS and 1% penicillin/streptomycin. All cell lines above were cultured at humidified atmosphere containing 5% CO2 at 37° C.
(§2) In the cytotoxicity assay, exponentially growing cells of each cancer cell line were plated in 96-well microplate at a density of 5000 cells per well in 100 μL of culture medium and allowed to adhere for 24 h before treatment. Serial concentrations of RNA molecules obtained in Example 1 to 4 in a mixture containing a gene delivery carrier, i.e. Lipofectamine™ RNAiMAX Transfection Reagent (Thermo Fisher Scientific, U.S.A.) were then added to the cells. After treated for 48 h, MTT solution (50 μL per well, 1 mg/mL solution) was added to each well and incubated for 4 h at 37° C. Subsequently, 200 μL dimethyl sulfoxide (DMSO) were added and the optical densities of the resulting solutions were calorimetrically determined at 570 nm using a SpectraMax 190 microplate reader (Molecular Devices, Sunnyvale, CA, U.S.A). Dose-response curves were obtained, and the IC50 values were calculated by GraphPad Prism 5 (GraphPad, La Jolla, CA, USA). Each experiment was carried out for three times. IC50 results were expressed as means±standard deviation.

[2] = tested on: LoVo colorectal adenocarcinoma cell line; assay: MTT cytotoxicity assay on LoVo cells; format: cell-based; conditions: for IC50: MTT, 48 h treatment; for effect on growth and proliferation (FIGS. 7A, 7B): 6.25-100 nM
Description: as §1, §2

[3] = tested on: HCT-8/5-FU (5-FU-resistant strain of HCT-8); assay: MTT cytotoxicity assay on HCT-8/5-FU cells; format: cell-based, human; conditions: for IC50: MTT, 48 h treatment; for effect on growth and proliferation (FIGS. 7A, 7B): 6.25-100 nM
Description: as §1, §2

[4] = tested on: LoVo/5-FU (5-FU-resistant strain of LoVo); assay: MTT cytotoxicity assay on LoVo/5-FU cells; format: cell-based; conditions: for IC50: MTT, 48 h treatment; for effect on growth and proliferation (FIGS. 7A, 7B): 6.25-100 nM
Description: as §1, §2

HCT-8 cells [5] = assay: Clonogenic assay on HCT-8 cells; format: cell-based, human; conditions: 50 nM; for colony number, inhibition of proliferation (FIG. 8A): vs control group
Description: as §1
(§3) In the clonogenic assay, HCT-8 or LoVo cells were plated in 6-well microplate at a density of 1000 cells per well in 2 mL of culture medium and allowed to adhere for 24 h before treatment. Single concentration of RNA molecules obtained in Example 1 to 4 in a mixture containing a gene delivery carrier, i.e. Lipofectamine™ RNAiMAX Transfection Reagent (Thermo Fisher Scientific, U.S.A.) were then added to the cells. After treated for 48 h, discarded the drug solutions and replaced with 2 mL of fresh culture medium. After culture 14 days, discarded the culture medium and the cells were fixated with 4% paraformaldehyde fix solution for 20 min, followed by stained with crystal violet for 10 min and then washed by deionized water. The 6-well microplate was photographed and the number of colonies with more than 50 individual cells were counted using ImageJ software (U.S.A.). Each experiment was carried out for three times. Results were expressed as means±standard deviation.

HCT-8 cells [6] = assay: Wound-healing assay on HCT-8 cells; format: cell-based, human; conditions: 50 nM; for wound area, inhibition of migration (FIG. 9A): vs control group
Description: as §1
as §3, with “wound-healing” for “clonogenic”, “500,000” for “1000”, “[…]” for “Single concentration”, “[…] A 1 mL bacteria-free pipette tip was used to make a cross-scratch at the bottom of 6-well microplate. The cells in the scratch were washed away using phosphor buffer solution and the 6-well microplate was photographed under a microscope. Single concentration of RNA molecules obtained in Example 1 to 4 in a mixture containing a gene delivery carrier, i.e. Lipofectamine™ RNAiMAX Transfection Reagent (Thermo Fisher Scientific, U.S.A.) were then added to the cells. The cells were then photographed under microscope at 24 and 48 h. ImageJ software was applied to quantify the area of wound created. Each experiment was carried out for three times. Results were expressed as means±standard deviation.” for “deviation.”

LoVo cells [7] = assay: Wound-healing assay on LoVo cells; format: cell-based; conditions: 25 nM; for wound area, inhibition of migration (FIG. 9B): vs control group
Description: as §1
as §3, with “wound-healing” for “clonogenic”, “500,000” for “1000”, “[…]” for “Single concentration”, “[…] A 1 mL bacteria-free pipette tip was used to make a cross-scratch at the bottom of 6-well microplate. The cells in the scratch were washed away using phosphor buffer solution and the 6-well microplate was photographed under a microscope. Single concentration of RNA molecules obtained in Example 1 to 4 in a mixture containing a gene delivery carrier, i.e. Lipofectamine™ RNAiMAX Transfection Reagent (Thermo Fisher Scientific, U.S.A.) were then added to the cells. The cells were then photographed under microscope at 24 and 48 h. ImageJ software was applied to quantify the area of wound created. Each experiment was carried out for three times. Results were expressed as means±standard deviation.” for “deviation.”

LoVo cells [8] = assay: Clonogenic assay on LoVo cells; format: cell-based; conditions: 25 nM; for colony number, inhibition of proliferation (FIG. 8B): vs control group
Description: as §1, §3

[9] = among EC83 mimic and modified mimics

Molecule	cell viability of HCT-8 cells (FIG. 6A) [1]	colony number, inhibition of proliferation (FIG. 8A) (HCT-8 cells [5])	effect on growth and proliferation (FIGS. 7A, 7B) [1]	IC50 [1] [nM]	wound area, inhibition of migration (FIG. 9A) (HCT-8 cells [6])	effect on growth and proliferation (FIGS. 7A, 7B) [2]	IC50 [2] [nM]	effect on growth and proliferation (FIGS. 7A, 7B) [3]	IC50 [3] [nM]	wound area, inhibition of migration (FIG. 9B) (LoVo cells [7])	effect on growth and proliferation (FIGS. 7A, 7B) [4]	IC50 [4] [nM]	colony number, inhibition of proliferation (FIG. 8B) (LoVo cells [8])	further results
O=c1[nH]cc(F)c(=O)[nH]1 [5-FU, fluorouracil, reference compound]	–	–	–	–	–	–	–	–	–	–	–	–	–	IC50 ([1]; Homo sapiens): 41400 nM; IC50 ([2]; Homo sapiens): 63900 nM; IC50 ([3]; Homo sapiens): 171000 nM; IC50 ([4]; Homo sapiens): 133000 nM
EC41 mimic: 22 bp dsRNA; antisense SEQ ID NO: 47 GGGUGAUUAGCUCAGCUGGGAG, sense SEQ ID NO: 141 CUCCCAGCUGAGCUAAUCACCC; 5′-t of tRNA-Val(UAC) (listed as RNA, chemistry not given here) [22 bp dsRNA; 5′-t of tRNA-Val(UAC)]	effective to colorectal cancer cells	–	–	–	–	–	–	–	–	–	–	–	–	–
EC42 mimic: 22 bp dsRNA; antisense SEQ ID NO: 48 UCGAUCCCGUCAUCACCCACCA, sense SEQ ID NO: 142 UGGUGGGUGAUGACGGGAUCGA; 3′-t of tRNA-Val(UAC) (listed as RNA, chemistry not given here) [22 bp dsRNA; 3′-t of tRNA-Val(UAC)]	effective to colorectal cancer cells	–	–	–	–	–	–	–	–	–	–	–	–	–
EC83 mimic: 22 bp dsRNA; antisense SEQ ID NO: 89 GCCGAAGUGGCGAAAUCGGUAG, sense SEQ ID NO: 183 CUACCGAUUUCGCCACUUCGGC; 5′-t of tRNA-Leu(CAA) (RNA, backbone not given here; tRNA-derived fragment mimic duplex) [22 bp dsRNA; 5′-t of tRNA-Leu(CAA)]	–	significantly inhibit the proliferation	dose-dependent effect on inhibiting the growth and proliferation	70.6	significantly inhibit the migration	dose-dependent effect on inhibiting the growth and proliferation	28.8	dose-dependent effect on inhibiting the growth and proliferation	63.4	significantly inhibit the migration	dose-dependent effect on inhibiting the growth and proliferation	29.5	significantly inhibit the proliferation	cytotoxicity ranking on HCT-8 cells (FIG. 6C) ([1]; among synthetic RNA molecules of Example 4): strongest cytotoxicity
EC83-M1 mimic: modified EC83 dsRNA; antisense SEQ ID NO: 1 GCCGAAG[s^4U]GGCGAAAUCGGUAG, sense SEQ ID NO: 4 CUACCGAUUUCGCCACUUCGGC (antisense GCCGAAGUGGCGAAAUCGGUAG; antisense: RNA, [s4U] at 8, backbone not given here; sense: RNA, backbone not given here; tRNA-derived fragment mimic duplex)	–	significantly inhibit the proliferation	dose-dependent effect on inhibiting the growth and proliferation	77.9	significantly inhibit the migration	dose-dependent effect on inhibiting the growth and proliferation	43.6	dose-dependent effect on inhibiting the growth and proliferation	69.6	significantly inhibit the migration	dose-dependent effect on inhibiting the growth and proliferation	54.2	significantly inhibit the proliferation	–
EC83-M2 mimic: modified EC83 dsRNA; antisense SEQ ID NO: 2 GCCGAAGUGGCGAAAUC[Gm]GUAG, sense SEQ ID NO: 5 CUACCGAUUUCGCCACUUCGGC (antisense GCCGAAGUGGCGAAAUCGGUAG; antisense: sugars from the 5' end r17 m1 r4, backbone not given here; sense: RNA, backbone not given here; tRNA-derived fragment mimic duplex)	–	significantly inhibit the proliferation	dose-dependent effect on inhibiting the growth and proliferation	58.9	significantly inhibit the migration	dose-dependent effect on inhibiting the growth and proliferation	19.9	dose-dependent effect on inhibiting the growth and proliferation	48.8	significantly inhibit the migration	dose-dependent effect on inhibiting the growth and proliferation	18.3	significantly inhibit the proliferation	anti-proliferation activity ranking (FIG. 8A) (HCT-8 cells [5]; [9]): strongest anti-proliferation activity; wound healing inhibition ranking (FIG. 9A) (HCT-8 cells [6]; [9]): strongest inhibition effect on the wound healing; wound healing inhibition ranking (FIG. 9B) (LoVo cells [7]; [9]): strongest inhibition effect on the wound healing; anti-proliferation activity ranking (FIG. 8B) (LoVo cells [8]; [9]): strongest anti-proliferation activity
EC85 mimic: 22 bp dsRNA; antisense SEQ ID NO: 91 GCGAAGGUGGCGGAAUUGGUAG, sense SEQ ID NO: 185 CUACCAAUUCCGCCACCUUCGC; 5′-t of tRNA-Leu(CAG) (listed as RNA, chemistry not given here) [22 bp dsRNA; 5′-t of tRNA-Leu(CAG)]	effective to colorectal cancer cells	–	–	–	–	–	–	–	–	–	–	–	–	–
EC86 mimic: 22 bp dsRNA; antisense SEQ ID NO: 92 UCAAGUCCCCCCCCUCGCACCA, sense SEQ ID NO: 186 UGGUGCGAGGGGGGGGACUUGA; 3′-t of tRNA-Leu(CAG) (listed as RNA, chemistry not given here) [22 bp dsRNA; 3′-t of tRNA-Leu(CAG)]	effective to colorectal cancer cells	–	–	–	–	–	–	–	–	–	–	–	–	–
B1	effective to colorectal cancer cells	–	–	–	–	–	–	–	–	–	–	–	–	–
B2	effective to colorectal cancer cells	–	–	–	–	–	–	–	–	–	–	–	–	–
